Experimental data: ChEMBL document CHEMBL2151025, “Synthesis and structure-activity relationship of potent, selective and orally active anthranilamide-based factor Xa inhibitors: application of weakly basic sulfoximine group as novel S4 binding element” (Eur J Med Chem, 2012)

system: Plasma; assay: Anticoagulant activity in rat plasma assessed as concentration required to double prothrombin time; format: functional

Point of comparison: CNCC(=O)N=S(C)(=O)c1ccc(C(=O)Nc2ccc(Cl)cc2C(=O)Nc2ccc(Cl)cn2)cc1 (configuration not stated), 2PT 1.7 µM. Against it:
- CCNCC(=O)N=S(C)(=O)c1ccc(C(=O)Nc2c(OC)cc(Cl)cc2C(=O)Nc2ccc(Cl)cn2)cc1 (configuration not stated) — within 1.5-fold, 1.15 µM
- CC(C)NCC(=O)N=S(C)(=O)c1ccc(C(=O)Nc2ccc(Cl)cc2C(=O)Nc2ccc(Cl)cn2)cc1 (configuration not stated) — within 1.5-fold, 1.9 µM
- CCN(CC)CC(=O)N=S(C)(=O)c1ccc(C(=O)Nc2c(OC)cc(Cl)cc2C(=O)Nc2ccc(Cl)cn2)cc1 (configuration not stated) — within 1.5-fold, 1.3 µM

system: Rattus norvegicus; assay: Antithrombotic activity in po dosed FeCl3-induced venous thrombosis Wistar rat model assessed as reduction in thrombus weight after 2 hrs; format: functional, organism-based

CCN(CC)CC(=O)N=S(C)(=O)c1ccc(C(=O)Nc2ccc(Cl)cc2C(=O)Nc2ccc(Cl)cn2)cc1 (configuration not stated) was tested, and the Activity was “Dose-dependent effect”.

system: Plasma

Point of comparison: CN1CCCN(CC(=O)N=S(C)(=O)c2ccc(C(=O)Nc3ccc(Cl)cc3C(=O)Nc3ccc(Cl)cn3)cc2)CC1 (configuration not stated), 2PT 1.82 µM. Against it:
- CS(=O)(=O)N=S(C)(=O)c1ccc(C(=O)Nc2ccc(Cl)cc2C(=O)Nc2ccc(Cl)cn2)cc1 (configuration not stated) — within 1.5-fold, 2.6 µM
- CCN(CC)CCN=S(C)(=O)c1ccc(C(=O)Nc2ccc(Cl)cc2C(=O)Nc2ccc(Cl)cn2)cc1 (configuration not stated) — within 1.5-fold, 1.78 µM
- CS(=O)(=NC(=O)CNC1CCCC1)c1ccc(C(=O)Nc2ccc(Cl)cc2C(=O)Nc2ccc(Cl)cn2)cc1 (configuration not stated) — within 1.5-fold, 2.26 µM
- CCNCC(=O)N=S(C)(=O)c1ccc(C(=O)Nc2c(OC)cc(Cl)cc2C(=O)Nc2ccc(Cl)cn2)cc1 (configuration not stated) — 2.5-fold lower, 0.74 µM
- CC(C)NCC(=O)N=S(C)(=O)c1ccc(C(=O)Nc2ccc(Cl)cc2C(=O)Nc2ccc(Cl)cn2)cc1 (configuration not stated) — 1.9-fold lower, 0.95 µM
- CCN(CC)CC(=O)N=S(C)(=O)c1ccc(C(=O)Nc2c(OC)cc(Cl)cc2C(=O)Nc2ccc(Cl)cn2)cc1 (configuration not stated) — 2-fold lower, 0.92 µM
- CNCC(=O)N=S(C)(=O)c1ccc(C(=O)Nc2ccc(Cl)cc2C(=O)Nc2ccc(Cl)cn2)cc1 (configuration not stated) — 2.4-fold lower, 0.77 µM

molecular target: T1, Coagulation factor X (Homo sapiens, UniProt P00742); assay: Inhibition of human F10a using S-2765 as substrate after 45 mins
T1 sequence (P00742 41-179 limits assumed): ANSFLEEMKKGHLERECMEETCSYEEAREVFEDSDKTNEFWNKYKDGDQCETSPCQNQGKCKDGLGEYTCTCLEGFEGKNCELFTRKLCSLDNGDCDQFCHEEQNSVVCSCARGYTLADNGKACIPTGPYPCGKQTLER
T1 sequence (P00742 235-488 limits assumed): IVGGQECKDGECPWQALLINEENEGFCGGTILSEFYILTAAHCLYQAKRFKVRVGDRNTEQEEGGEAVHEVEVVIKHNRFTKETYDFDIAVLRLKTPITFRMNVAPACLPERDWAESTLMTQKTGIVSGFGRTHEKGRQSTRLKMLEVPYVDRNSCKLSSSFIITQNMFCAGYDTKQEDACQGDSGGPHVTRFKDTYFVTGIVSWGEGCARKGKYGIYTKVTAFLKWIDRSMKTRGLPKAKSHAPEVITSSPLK

Point of comparison: CNCC(=O)N=S(C)(=O)c1ccc(C(=O)Nc2ccc(Cl)cc2C(=O)Nc2ccc(Cl)cn2)cc1 (configuration not stated), IC50 5.4 nM. Against it:
- CCNCC(=O)N=S(C)(=O)c1ccc(C(=O)Nc2c(OC)cc(Cl)cc2C(=O)Nc2ccc(Cl)cn2)cc1 (configuration not stated) — 2.3-fold lower, 2.4 nM
- CC(C)NCC(=O)N=S(C)(=O)c1ccc(C(=O)Nc2ccc(Cl)cc2C(=O)Nc2ccc(Cl)cn2)cc1 (configuration not stated) — within 1.5-fold, 4 nM
- CCN(CC)CC(=O)N=S(C)(=O)c1ccc(C(=O)Nc2c(OC)cc(Cl)cc2C(=O)Nc2ccc(Cl)cn2)cc1 (configuration not stated) — 1.6-fold lower, 3.4 nM

molecular target: T1, Coagulation factor X; assay: Inhibition of human F10a using S-2765 as substrate at 0.1 uM after 45 mins

Point of comparison: CC(C)NCC(=O)N=S(C)(=O)c1ccc(C(=O)Nc2ccc(Cl)cc2C(=O)Nc2ccc(Cl)cn2)cc1 (configuration not stated), inhibition 97%. Against it:
- CS(=O)(=O)N=S(C)(=O)c1ccc(C(=O)Nc2ccc(Cl)cc2C(=O)Nc2ccc(Cl)cn2)cc1 (configuration not stated) — lower, 55%
- CN1CCCN(CC(=O)N=S(C)(=O)c2ccc(C(=O)Nc3ccc(Cl)cc3C(=O)Nc3ccc(Cl)cn3)cc2)CC1 (configuration not stated) — lower, 75%
- CCN(CC)CCN=S(C)(=O)c1ccc(C(=O)Nc2ccc(Cl)cc2C(=O)Nc2ccc(Cl)cn2)cc1 (configuration not stated) — lower, 77%
- CS(=O)(=NC(=O)CNC1CCCC1)c1ccc(C(=O)Nc2ccc(Cl)cc2C(=O)Nc2ccc(Cl)cn2)cc1 (configuration not stated) — higher, 100%
- CCNCC(=O)N=S(C)(=O)c1ccc(C(=O)Nc2c(OC)cc(Cl)cc2C(=O)Nc2ccc(Cl)cn2)cc1 (configuration not stated) — higher, 100%
- CCN(CC)CC(=O)N=S(C)(=O)c1ccc(C(=O)Nc2c(OC)cc(Cl)cc2C(=O)Nc2ccc(Cl)cn2)cc1 (configuration not stated) — the same, 97%
- CNCC(=O)N=S(C)(=O)c1ccc(C(=O)Nc2ccc(Cl)cc2C(=O)Nc2ccc(Cl)cn2)cc1 (configuration not stated) — lower, 93%
- CCN(CC)CC(=O)N=S(C)(=O)c1ccc(C(=O)Nc2ccc(Cl)cc2C(=O)Nc2ccc(Cl)cn2)cc1 (configuration not stated) — higher, 100%

system: Rattus norvegicus; assay: Antithrombotic activity in po dosed FeCl3-induced arterial thrombosis Wistar rat model assessed as reduction in thrombus weight after 2 hrs; format: functional, organism-based

For CCN(CC)CC(=O)N=S(C)(=O)c1ccc(C(=O)Nc2ccc(Cl)cc2C(=O)Nc2ccc(Cl)cn2)cc1 (configuration not stated), the Activity was “Dose-dependent effect”.
